Results reported in US20250034194A1, “INHIBITORS OF ABNORMAL PHOSPHORYLATION AND TAU PROTEIN AGGREGATION” (UNIVERSITE DE PICARDIE JULES VERNE, priority 2021, published 2025).

Columns and labels:
[1] = tested on: tau phosphorylation (S262 site) in cortical cells of rTg4510 mice (human tau P301L); assay: In cellulo tau phosphorylation test in cortical cells of rTg4510 mice; type: cell-based; conditions: 24 h
Description: Cortical cells from rTg4510 mice mutated for human tau protein (P301 L) were used as a model of primary cells expressing a tauopathy without induction by an effector, unlike the previous cellular model (Santa Cruz et al., Science, 2005).
Cortical cells are extracted from mouse embryos expressing the P301L mutation at stage E16 and cultured in a 6-well plate. On day 14 (moderate tau phosphorylation) or day 18 (severe tau phosphorylation), cells extracted from the same embryo are placed in the presence of the Mal16diS molecule at different concentrations (0.1 or 1 μg/mL), in a final volume of 2 mL simultaneously with a well of cells from the same embryo not receiving molecules for 24 h. After 24 h of treatment with the molecules, the cells are rinsed with 1×PBS then lysed and recovered in RIPA buffer (Thermo Fischer). The protein extracts from the cells (10 μg) are then analysed by western blot according to the same procedure described above.
The tau phosphorylation site studied here is the S262 site (Thermo Fisher), normalized to the expression of total tau protein (K9JA, Dako). The bands are quantified using the Odyssey software of the LI-COR device allowing the p-tau/tau ratio to be calculated for each of the conditions. The ratio obtained for each concentration of molecule is then expressed as a percentage of the ratio obtained for cells not treated by the molecules. Thus a value less than 100% corresponds to protection provided by the molecules in this cellular model of expression of tau phosphorylation. The experiment was repeated at least three times for each dose of “Mal16diS” molecule. The mean and standard deviation of the replicates are shown in FIGS. 17 and 18; each of the values obtained for each dose is compared to that of the cells without addition of the molecule, with a t-test. Statistical differences with p-value <0.01 and <0.001 are represented by “**” and “***” respectively.

[2] = tested on: tau phosphorylation (S262 site) in SH-SY5Y cells; assay: In cellulo tau phosphorylation test in the SH-SY5Y line (H2O2 stress induction); type: cell-based; conditions: 24 hours, then H2O2
Procedure: The tau phosphorylation induction model on the SH-SY5Y cell line described in the Gly-CRRET laboratory article was used here (Sepulveda-Diaz et al., 2015).
In short, SH-SY5Y cells are seeded in 6-well plates and differentiated using retinoic acid (10 μM, Sigma Aldrich) for 5 days. On day 6, the cells are placed in the presence of the Mal16diS and Mal18diS molecules at different concentrations (1, 10 or 100 μg/mL), in a final volume of 2 mL simultaneously with a well not receiving molecules. After 24 hours, the molecules are removed and the stress inducer (H2O2, Sigma Aldrich) is added to the cell medium for 30 minutes. The cells are then rinsed with 1×PBS then lysed and recovered in RIPA buffer (Thermo Fisher). The protein extracts from the cells (10 μg) are then analysed by western blot according to the same procedure described above.
The tau phosphorylation site studied here is the S262 site (Thermo Fisher), normalized to the expression of the GAPDH protein (Sigma Aldrich). The bands are quantified using the Odyssey software of the LI-COR device allowing the p-tau/GAPDH ratio to be calculated for each of the conditions. The ratio obtained for each concentration of molecule is then expressed as a percentage of the ratio obtained for the control cells, i.e., not treated by the molecules. Thus a value less than 100% corresponds to protection provided by the molecules in this cellular model of tau phosphorylation induction.
The experiment was repeated at least 4 times for each molecule dose for the “Mal16diS” and “Mal18diS” molecules and at least twice for the “Cell16diS” and “Lac16diS” molecules. The mean and standard deviation of the replicates are shown in FIGS. 13 to 16; each of the values obtained for each dose is compared to that of the control without addition of molecule by means of a t-test. Statistical differences with p-value <0.05 and <0.001 are represented by “*” and “***” respectively.

`CCCCCCCCCCCCCCCCNC(=O)[C@H](O)[C@@H](O)[C@H](O[C@H]1OC(COS(=O)(=O)[O-])[C@@H](O)C(O)[C@@H]1O)[C@H](O)COS(=O)(=O)[O-].[Na+].[Na+]` (stereo partly drawn) [Mal16diS, N-Hexadecyl-6,6′-Di-O-Sulfo-D-Maltobioamide Disodium] was tested, and the “reduction in tau phosphorylation (S262, p-tau/tau) compared to untreated cells” value ([1]; moderate phosphorylation (D14), 0.1 μg/mL) was 48%, the “reduction in tau phosphorylation (S262, p-tau/tau) compared to untreated cells” value ([1]; moderate phosphorylation (D14), 1 μg/mL) was 64% and the “reduction in tau phosphorylation (S262, p-tau/tau) compared to untreated cells” value ([1]; severe phosphorylation (D18), 0.1 μg/mL) was 39%. For the same compound, the “reduction in tau phosphorylation (S262, p-tau/tau) compared to untreated cells” value ([1]; severe phosphorylation (D18), 1 μg/mL) was 53%, the “reduction in tau phosphorylation (S262, p-tau/GAPDH) compared to untreated cells” value ([2]; 1 μg/mL) was 30% and the “reduction in tau phosphorylation (S262, p-tau/GAPDH) compared to untreated cells” value ([2]; 10 μg/mL) was 40%.
